According to publication PMC8648872, “A host-directed macrocyclic peptide therapeutic for MDR gram negative bacterial infections” (Scientific Reports, 2021):
Where a SMILES comes first, the peptide text is derived from it. Bridges are numbered along the chain shown (N, C = ends).

How the values were obtained:
[1] = Stability in aqueous media; assay type: physicochemical; details: including acidic solutions as low as pH 2.0; preliminary, data not shown
neutrophils = assay: Neutrophil recruitment (peritoneal lavage and blood); assay type: in vivo, BALB/c mice
Procedure: Blood, peritoneal lavage fluid, and spleen homogenates were obtained from mice following by CO2 euthanasia. Citrate-anti-coagulated blood was collected by aseptic cardiac puncture. Peritoneal lavage was performed by injecting 3 ml of PBS into the peritoneal cavity, massaging the abdomen, and then collecting fluid aseptically through a minor incision in the abdominal wall. Spleen was surgically removed and homogenized in sterile PBS using Polytron PT10-35 homogenizer. Samples were serially diluted and plated in triplicate on TSA plates, incubated overnight at 37 °C and colonies counted.
EDTA-anticoagulated blood was collected aseptically by terminal cardiac puncture and analyzed for complete blood cell count using an Element HT5 hematology analyzer (Heska). Blood plasma and clarified peritoneal lavage were prepared by two-step centrifugation described previously. Plasma cytokine levels were quantified using a mouse-specific MILLIPLEX MAP kit (Millipore Cat# MCYTMAG-70K) as described.

[2] = Peptide stability in human EDTA plasma; assay type: in vitro ADME; details: 90% (vol/vol) human EDTA-plasma, 37 °C, C18 RP-UPLC with PDA detector, read-out: peptide remaining intact
Procedure: MTD12813 (final concentration of 100 µg/ml) was added to either 90% human EDTA plasma or 90% human serum and incubated at 37 °C for 48 h. Samples were processed by addition of 10% HOAc and 5% ACN (final concentrations) at time 0 and 48 h, and MTD12813 was quantified by C18 RP-HLPC on an Acquity H-Class UPLC with an analytical PDA detector using Empower 3 software (Waters). All samples were performed with technical replicates and analyzed by UPLC in duplicate and the experiment repeated once. […] A time 0 h sample was collected, and the remaining suspension incubated at 37 °C for 24 h. Samples were processed by addition of 5% formic acid/5% acetonitrile, vortexed, and clarified at 22,000×g for 10 min. Supernatant MTD12813 was then quantified by LC–MS/MS as described in PK section above. All samples were performed with technical replicates and analyzed by LC–MS/MS in duplicate.

[3] = LPS neutralization, limulus amebocyte lysate assay; assay type: biochemical; details: 0.5 EU/ml LPS, 0.078–5 μg/ml, 37 °C, 30 min; data not shown
Procedure: A limulus amebocyte lysate endotoxin detection assay (Pierce A39553) protocol was employed by preincubating 0.5 EU/ml of LPS with either MTD12813, RTD-1, or colistin (0.078–5 μg/ml) in H20 at 37 °C for 30 min followed by quantifying free LPS per manufacturer’s instructions. All samples were compared to a LPS standard curve to determine the degree of LPS neutralization.

E. coli BAA-2340 = assay: CRE E. coli BAA-2340 septicemia, survival; assay type: in vivo, BALB/c mice; details: KPC+ E. coli BAA-2340 i.p., saline controls 10%
Procedure: BALB/c mice (Jackson Laboratories) 8–10 weeks of age were acclimated (3–5 to a cage for at least 5 days prior to infection) in a thermostatically controlled room with 12 h light/dark cycle. Cryopreserved K. pneumoniae cells were thawed and adjusted to a density of 6–10 × 10^8 CFU/ml, confirmed by plating on trypticase soy agar (TSA) plates. E. coli BAA-2340 was grown to log-phase in trypticase soy broth, pelleted, washed with PBS, and resuspended in PBS at 0.5–1 × 10^9 CFU/ml. Mice were infected by i.p. injection of 2–5 × 10^8 CFU of Kp-1705 or 3–6 × 10^7 CFU of E. coli BAA-2340 using a 28 g needle in a volume of 0.5 ml. Post-infection, mice were observed three times a day for at least 4 days and then daily for 28 days. Mice were euthanized when they became moribund. All experiments used both male and female mice and were repeated at least twice.

## CC[C@H](C)[C@@H]1NC(=O)[C@@H]2CSSC[C@H](NC(=O)[C@H]([C@@H](C)CC)NC(=O)[C@@H]3CSSC[C@H](NC1=O)C(=O)N[C@@H](C(C)C)C(=O)NCC(=O)N[C@@H](CCCNC(=N)N)C(=O)NCC(=O)N3)C(=O)N[C@@H](C(C)C)C(=O)N[C@@H](CCCNC(=N)N)C(=O)N[C@@H](CCCNC(=N)N)C(=O)N[C@@H](CCCNC(=N)N)C(=O)N2 [MTD12813] (cyclo(CICVGRGCICVRRR); disulfide 1-10, 3-8)
[1]
  stability in aqueous media: exceedingly stable
neutrophils; Kp-1705 infected mice, 1.25 mg/kg i.p. 1 h p.i., 24 h, P = 0.0048
  PLF neutrophils versus saline: threefold increase
neutrophils; Kp-1705 infected mice, 1.25 mg/kg i.p. 1 h p.i., peak at ca. 2 h p.i.
  blood neutrophils: transient peripheral blood neutrophilia
neutrophils; sham-infected mice, 24 h after peptide delivery
  PLF neutrophil numbers in sham-infected mice: no increase in neutrophil numbers
[2]
  remaining at 48 h, 100 µg/ml: > 95%
[3]
  LPS inhibition (neutralization): No LPS inhibition
E. coli BAA-2340; single i.p. injection 1.25 mg/kg 1 h p.i.
  survival ≥ 28 days: 100%
E. coli BAA-2340; single i.p. injection 5 mg/kg 1 h p.i.
  survival ≥ 28 days: 100%
